Data from patent US6380249B1 (dated 2002).

Row | SMILES | melting point [°C]
1 | O=C(O)C(=O)CC(=O)c1ccccc1OCc1ccccc1 | 136 to 138
2 | O=C(O)C(=O)CC(=O)c1cccc(OCc2ccc(F)cc2)c1 | 157 to 158
3 | O=C(O)C(=O)CC(=O)c1ccc2ccn(Cc3ccc(F)cc3)c2c1 | 173 to 174
4 | O=C(O)C(=O)CC(=O)c1cccc2c1ccn2Cc1ccc(F)cc1 | 156 to 157
5 | O=C(O)C(=O)CC(=O)c1cccc(OCc2ccc(F)c(F)c2)c1 | 181 to 182
6 | COCCOc1c(OC)cc(Cc2ccccc2)cc1C(=O)CC(=O)C(=O)O | 83 to 85
7 | COc1cc(OCc2ccccc2)cc(C(=O)CC(=O)C(=O)O)c1 | 101 to 102
8 | COc1cc(Cc2ccccc2)cc(C(=O)CC(=O)C(=O)O)c1OCCSC | 99 to 100
9 | O=C(O)C(=O)CC(=O)c1cc(Cc2ccccc2)cc2c1OCCO2 | 154 to 155
10 | C=CCCCc1cc(OC)c(OC)c(C(=O)CC(=O)C(=O)O)c1 | 75 to 76
11 | COc1cc(CC2CC2)cc(C(=O)CC(=O)C(=O)O)c1OC | 101 to 103
12 | O=C(O)C(=O)CC(=O)c1cc(Cc2ccccc2)cc2c1OCC(O)CO2 (racemic) | 182 to 183
